Experimental data taken from paper PMC10295666 (Bioengineering, 2023).
Positions of bridges follow the written chain, without caps; N, C: chain ends. Residues, ends and D or L forms follow the SMILES beside them. No end group written: not given here.

Experiments:
[1] = test system: MHCC97L transplant tumors; experiment: MHCC97L subcutaneous xenograft model; settings: 25 mg/kg tail vein injection, monitored every two days for 14 days, n = 4
Protocol: Male BALB/c-nude mice were purchased from Guangdong GemPharmatech Co., Ltd. These mice were fed with food and purified water at room temperature in the SPF laboratory. MHCC97L cells (0.1 mL of physiological saline containing 1 × 10^7 cells) were subcutaneously injected into the armpit of 5-week-old male BALB/c-nude mice. Tumor volume and weight were measured every 2 days, and tumor volume was calculated using the following formula: (short axis)^2 × (long axis)/2. When the tumor volume reached approximately 50 mm^3, these mice were weighed and randomly divided into 3 groups (n = 4): the model group, the SAIF group (25 mg/kg), and the ctSAIF group (25 mg/kg). SAIF and ctSAIF were administered via tail vein injection at a dose of 25 mg/kg. The peptide was dissolved in saline solution to 5 mg/mL, and the dosage volume of each mouse was calculated using the following formula: (25 mg/kg × body weight)/(5 mg/mL). After 14 days of treatment, the mice were sacrificed, and the tumors were collected for histopathological examination.

[2] = In vitro serum stability assay of peptides (HPLC-UV / LC-MS); type: in vitro ADME; settings: human; serum from healthy individuals mixed with peptide 9:1, peptide 1 mg/mL, 37 °C, 0-1440 min, 10% TFA precipitation, HPLC-UV (C18) peak area
Protocol: The serum obtained from healthy individuals was centrifuged at a low speed and mixed with peptides at a ratio of 9:1 to achieve a peptide concentration of 1 mg/mL. The peptide–serum mixture was then incubated at 37 °C for different periods. After reaching the pre-determined time point (0, 10, 20, 30, 60, 120, 240, 480, 960, or 1440 min), pure trifluoroacetic acid was added to each sample to reach a final concentration of 10%. The mixture was then vortexed and centrifuged for 10 min at 13,000 rpm, and the supernatant (10 μL) was collected and stored in HPLC vials for analysis.
HPLC-UV analysis was performed using a C18 analytical column (Thermo Acclaim300 C18 LC ColuMns, 4.6 mm diameter, 150 mm length, Catalog #: 060266) and a Waters ACQUITY Arc Bio instrument, following the method shown in Table 1. The target peak was determined based on the retention time of pure peptides, and on this basis, detect peptides were degraded at different times and their peak area recorded to generate a degradation curve. The degradation rate of peptides was equal to (Areasample − Areablank)/(Areacontrol − Areablank) × 100%. The area of the blank was equal to the peak area detected after mixing peptides with ultrapure water at the same initial concentration. The signal-to-noise ratio of all collected data was greater than 10. […]

[3] = test system: normal human liver cell line 7701; experiment: Toxicity on normal liver cells; type: cell-based; settings: QSG-7701 cells
Protocol: Normal human liver cells QSG-7701 and Hepatocellular Carcinoma Cell lines 7721, Huh7, MHCC97H, MHCC97L, and HepG2 were all obtained from the Institute of Biomedical Sciences, Jinan University. All cells were cultured in DMEM medium (Gibco, Grand Island, NE, USA) supplemented with 10% fetal bovine serum (Gibco, Grand Island, NE, USA). The cell lines were incubated in a humidified atmosphere with 5% CO2 at 37 °C.
Cells in the logarithmic growth phase with good viability were seeded into 96-well plates at a density of 2500 cells per well and incubated for 24 h at 37 °C with 5% CO2. The old medium was removed, and the cells were starved with DMEM medium containing 0.5% FBS for 24 h. Peptides were diluted with 0.5% starved medium to different concentrations and added to each well with the same volume. The cells were then incubated for an additional 48 h at 37 °C. After removing the medium, 100 μL of CCK-8 working solution was added to each well, and the plate was incubated for 1 h at 37 °C with 5% CO2. Finally, the absorbance at 450 nm of each well was measured using a multifunctional microplate reader. Cell viability (%) was equal to (Asample − Ablank)/(Acontrol − Ablank) × 100%. […]
Cells in the logarithmic growth phase were seeded at a density of 1000 cells per well in 6-well plates and cultured for 24 h. […] After air-drying the plate, the colonies were photographed and counted.

[4] = serum obtained from healthy individuals; settings: 37 °C, up to 1440 min

Molecule	weight of nude mice during treatment [1]	half-life at 1 mg/mL [2]	toxicity on normal human liver cell line 7701 [3]	fragment found [4]
CSCC[C@@H]1NC(=O)[C@H](C)NC(=O)[C@H](CC(=O)O)NC(=O)[C@H](C)NC(=O)[C@H](CO)NC(=O)[C@H](CCSC)NC(=O)[C@H](CCCNC(=N)N)NC(=O)[C@H](C(C)C)NC(=O)[C@H](CCCNC(=N)N)NC(=O)[C@H](CCCCN)NC(=O)[C@H](CC(C)C)NC(=O)[C@@H]2CCCN2C(=O)[C@@H]2CCCN2C(=O)[C@H](CCCNC(=N)N)NC(=O)[C@H](CCCCN)NC(=O)[C@H](Cc2ccccc2)NC(=O)[C@H](CCCCN)NC(=O)CNC(=O)[C@H](CCCCN)NC(=O)[C@@H](N)CSSC[C@@H](C(=O)O)NC(=O)[C@H](CC(C)C)NC1=O [ctSAIF] (H-CKGKFKRPPLKRVRMSADAMLC-OH; disulfide 1-22)	no significant changes	~6 h	no significant toxicity	–
KEIDDLNLKVFDLKGKFKRPPLKRVRMSADAML	–	–	–	tSAIF (KGKFKRPPLKRVRMSADAML), 2 h
KEIDDLNLKVFDLKGKFKRPPLKRVRMSADAML [SAIF]	–	–	no significant toxicity	–
